US20170335304A1, “OXIDIZED PROTEIN HYDROLASE ACTIVITY ENHANCING AGENT AND GLYCATION STRESS INHIBITOR” (ARKRAY, Inc., priority 2016, published 2017)

Experiments:
Type in all cases: biochemical
[1] = target: AGEs modified bovine serum albumin (AGE-BSA) cross-linked to collagen (Bos taurus, UniProt P02769); assay: AGEs Cross-Link Breaking Effect Confirmatory Test (Test 2); conditions: cross-link breaking reaction at 37° C. for 18 hours; punicalagin 5 mmol/L
Description: The test was carried out according to the description in Sara Vasan et al. (Nature, 382, pp275-278 (1996)).
300 μL/well of SuperBlock T20 (PBS) Blocking Buffer was added to a commercially available 96-well microplate precoated with collagen, which then was reacted at 37° C. for one hour. After the reaction, it was washed with 0.05% polyethylene (20) sorbitan monolaurate (Tween 20)/PBS(-), and then AGEs modified bovine serum albumin (AGE-BSA) was added to each well of the microplate, which then was subjected to a crosslinking reaction at 37° C. for four hours. After the reaction, it was washed with Tween 20/PBS(-). Thereafter, a plant extract was added to each well and thereby it was subjected to a cross-link breaking (cleaving) reaction at 37° C. for 18 hours. After that, it was washed with Tween 20/PBS(-) and a primary antibody (anti-albumin bovine serum rabbit-polyclonal) was added thereto, which then was reacted at room temperature for 30 minutes. […] As a reaction stop solution, 1N HCl was added thereto, and the absorbance at 450 nm (dominant wavelength)/630 nm (complementary wavelength) was measured with a microplate reader. The amount of AGE-BSA that remained was determined from a calibration curve in which the amount of AGE-BSA was varied. Furthermore, the AGE-BSA decomposition rate (Collagen cross-link decomposition rate)was determined using the following formula. […]

[2] = target: T1, Acylamino-acid releasing enzyme (AARE) (OPH) (Sus scrofa, UniProt P19205); assay: OPH Activation Confirmatory Test (Test 2); conditions: sample solution 5 mg/ml; 24 hours at 37° C.; relative to Ref without sample; n=3
T1 construct: purchased Takara Bio Inc
T1 sequence (P19205 1-732): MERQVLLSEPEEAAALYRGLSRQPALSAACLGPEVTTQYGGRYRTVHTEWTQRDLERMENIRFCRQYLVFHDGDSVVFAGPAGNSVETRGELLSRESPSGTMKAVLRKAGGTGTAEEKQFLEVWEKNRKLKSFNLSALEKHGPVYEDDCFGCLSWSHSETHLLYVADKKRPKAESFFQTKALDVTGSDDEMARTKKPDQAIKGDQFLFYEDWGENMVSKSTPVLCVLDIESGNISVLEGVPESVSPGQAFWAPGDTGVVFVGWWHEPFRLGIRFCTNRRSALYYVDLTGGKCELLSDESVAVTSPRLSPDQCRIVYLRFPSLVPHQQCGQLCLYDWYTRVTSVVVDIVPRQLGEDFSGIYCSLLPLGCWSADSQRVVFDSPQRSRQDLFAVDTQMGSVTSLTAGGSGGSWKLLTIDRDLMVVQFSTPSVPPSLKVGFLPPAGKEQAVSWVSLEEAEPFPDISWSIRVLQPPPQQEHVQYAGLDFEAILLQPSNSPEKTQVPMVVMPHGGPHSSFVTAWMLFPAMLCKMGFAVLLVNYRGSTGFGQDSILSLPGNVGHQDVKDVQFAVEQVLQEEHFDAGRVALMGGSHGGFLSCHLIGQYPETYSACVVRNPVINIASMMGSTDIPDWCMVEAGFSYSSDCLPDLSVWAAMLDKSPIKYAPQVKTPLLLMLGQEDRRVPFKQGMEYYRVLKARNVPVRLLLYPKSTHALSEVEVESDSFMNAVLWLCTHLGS
Description: To each plant indicated in Table 3 below, 15 times its amount of water was added and it was extracted at 100° C. for 30 minutes and then was solid-liquid separated and condensed. Thereafter, it was sterilized at 100° C. or higher for 30 minutes or less, which then was spray-dried. Thus, plant extract powders were obtained.
Each plant extract powder mentioned above was diluted with distilled water so as to be 5 mg/ml, which then was used as a sample solution. […]
The OPH Solution, the AAPA solution, and the sample solution (5 mg/mi) were mixed together to be added to each well of a 96-well microplate and then were reacted for 24 hours in an incubator set at 37° C. The absorbance at 405 nm of each reaction solution was measured with a microplate reader.
The enzyme activity of the OPH was determined as variation in absorbance (reaction rate) per hour (the OPH reaction rate of the sample). On the other hand, as a reference (Ref), the same measurement was carried out without adding the sample solution and then the reaction rate was determined (the OPH reaction rate of Ref). Using the OPH reaction rate of the sample and the OPH reaction rate of Ref, the OPH activation rate (%) was calculated from the following formula (n=3). […]

[3] = AGEs Cross-Link Breaking Effect Confirmatory Test (Test 3); conditions: same measurement as Test 1, mixture solid content 7.42 mg/mL
Description: (§1) A plant extract, 10 mmol/L of PPD, and 0.2 mol/L of phosphate buffer solution (pH 7.4) were mixed together at a ratio of 5:1:4 and then were reacted at 37° C. for eight hours (n=3). After completion of the reaction, hydrochloric acid was added thereto to stop the reaction and thus a reaction solution was obtained. […] The amount of benzoic acid contained in the reaction solution was determined by subtracting the amount of benzoic acid contained in the plant extract, which was measured separately. Since 1 mol of PPD produces 1 mol of benzoic acid, the cross-link breaking rate was calculated by the following formula. Cross-link breaking rate (%)={(A−B)/C}×100 • A: The amount of benzoic acid contained in the reaction solution • B: The amount of benzoic acid contained in the plant extract • C: The amount of PPD provided for the reaction (the amount of the substrate) As a control, a test was carried out using 10 mmol/L of PTB instead of the plant extract. The same measurement as in the AGEs cross-link breaking effect confirmatory test (Test 1) was carried out except for using a mixture of plant extracts indicated in Table 6 below.

[4] = AGEs Cross-link Breaking Effect Confirmatory Test (Test 1); conditions: 10 mmol/L PPD, pH 7.4, 37° C., eight hours; n=3; PTB 10 mmol/L
Description: as §1, with “The test was carried out according to the description in […] al. (Nature, 382, pp275-278 (1996)). […] A plant” for “A plant”, “breaking rate (%)={(A-B)/C}×100 • A:” for “breaking rate (%)={(A−B)/C}×100 • A:”, “plant extract.” for “plant extract. The same measurement as in the AGEs cross-link breaking effect confirmatory test (Test 1) was carried out except for using a mixture of plant extracts indicated in Table 6 below.”

Sequence of AGEs modified bovine serum albumin (AGE-BSA) cross-linked to collagen (P02769 25-607): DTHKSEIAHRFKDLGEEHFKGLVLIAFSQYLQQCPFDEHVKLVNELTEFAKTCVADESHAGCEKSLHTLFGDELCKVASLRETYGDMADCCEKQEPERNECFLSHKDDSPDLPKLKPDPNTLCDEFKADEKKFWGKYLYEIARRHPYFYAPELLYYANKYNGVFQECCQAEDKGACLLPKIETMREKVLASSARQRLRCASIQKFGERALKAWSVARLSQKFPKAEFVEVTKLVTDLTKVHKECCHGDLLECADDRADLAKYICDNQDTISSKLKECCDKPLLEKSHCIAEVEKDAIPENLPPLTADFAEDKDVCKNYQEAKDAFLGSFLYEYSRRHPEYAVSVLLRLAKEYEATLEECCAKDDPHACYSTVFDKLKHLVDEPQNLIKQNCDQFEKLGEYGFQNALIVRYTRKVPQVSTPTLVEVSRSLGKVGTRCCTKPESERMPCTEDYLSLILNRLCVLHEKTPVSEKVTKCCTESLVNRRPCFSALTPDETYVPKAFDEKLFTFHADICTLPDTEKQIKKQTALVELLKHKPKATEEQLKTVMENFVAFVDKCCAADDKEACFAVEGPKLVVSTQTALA

Which “Amount of Remaining AGE-BSA” value [1] does the source give for `O=C1O[C@H]2[C@@H]3OC(=O)c4cc(O)c(O)c(O)c4-c4c(O)c(O)c5oc(=O)c6c(c(O)c(O)c7oc(=O)c4c5c76)-c4c(cc(O)c(O)c4O)C(=O)OC[C@H]3OC(O)[C@@H]2OC(=O)c2cc(O)c(O)c(O)c2-c2c1cc(O)c(O)c2O` (mixture of isomers) [Punicalagin] here?
The value was 343.3 ng.

And the “Collagen Cross-Link Decomposition Rate (%)” value [1]?
Its value is 65.7%.

With `O=C(O[C@@H]1Cc2c(O)cc(O)cc2O[C@@H]1c1cc(O)c(O)c(O)c1)c1cc(O)c(O)c(O)c1` [EGCg, Epigallocatechin gallate] as the molecule, how does the “OPH Activation Rate (%) (Mean Value ± Standard Deviation)” value [2] read?
The value was 15.5 ± 3.2%.

Which results are given for `O=C(C[n+]1ccsc1)c1ccccc1.[Br-]` [PTB, N-phenacylthiazolium bromide]?
Cross-Link Breaking Rate (%) (Mean Value ± Standard Deviation) [3]: 25.34 ± 0.19%; Cross-Link Breaking Rate (%) (Mean Value ± Standard Deviation) [4]: 20.47 ± 0.29%
